Test system: AMPK
Assay: AMPK activation assay (enzyme-linked immunosorbent assay)
Type: cell-based
Method in brief: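 Compounds were tested for their capacity to activate the kinase using standard, commercially available kit reagents and procedures.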

Row | SMILES | EC50
1 | O=C(Nc1ccc(-c2ccccc2)cc1)c1ccc(C(=O)NC2CCN(Cc3ccccc3)CC2)nc1 [Compound 105, N2-(1-benzylpiperidin-4-yl)-N5-(biphenyl-4-yl)pyridine-2,5-dicarboxamide] | > 10000 nM
2 | O=C(Nc1cccc(-c2ccccc2)c1)c1ccc(C(=O)NC2CCN(Cc3ccccc3)CC2)nc1 [Compound 106, N2-(1-benzylpiperidin-4-yl)-N5-(biphenyl-3-yl)pyridine-2,5-dicarboxamide] | 5000 to 10000 nM
3 | O=C(Nc1ccccc1)c1ccc(C(=O)N2CCN(Cc3ccc(F)cc3)CC2)cn1 [Compound 107, 5-(4-(4-fluorobenzyl)piperazine-1-carbonyl)-N-phenylpicolinamide] | 5000 to 10000 nM
4 | N#Cc1ccc(CN2CCC(NC(=O)c3ccc(Nc4ccc(Cc5ccccc5)cc4)cn3)CC2)cc1 [Compound 108, 5-(4-benzylphenylamino)-N-(1-(4-cyanobenzyl)piperidin-4-yl)picolinamide] | 500 to 1000 nM
5 | N#Cc1ccc(CN2CCC(NC(=O)c3ccc(Nc4ccc(-c5ccccc5)cc4)cn3)CC2)cc1 [Compound 109, 5-(biphenyl-4-ylamino)-N-(1-(4-cyanobenzyl)piperidin-4-yl)picolinamide] | 5000 to 10000 nM
6 | N#Cc1ccc(CN2CCC(NC(=O)c3ccc(N4CCN(Cc5ccccc5)CC4)cn3)CC2)cc1 [Compound 110, 5-(4-benzylpiperazin-1-yl)-N-(1-(4-cyanobenzyl)piperidin-4-yl)picolinamide] | 1000 to 5000 nM
7 | O=C(NC1CCN(Cc2ccccc2)CC1)c1ccc(Nc2cccc(Oc3ccccc3)c2)cn1 [Compound 112, N-(1-benzylpiperidin-4-yl)-5-(3-phenoxyphenylamino)picolinamide] | 1000 to 5000 nM
8 | O=C(NC1CCN(Cc2ccccc2)CC1)c1ccc(Nc2ccc(Oc3ccccc3)cc2)cn1 [Compound 113, N-(1-benzylpiperidin-4-yl)-5-(4-phenoxyphenylamino)picolinamide] | 1000 to 5000 nM
9 | O=C(NC1CCN(Cc2ccccc2)CC1)c1ccc(Nc2cccc(-c3ccccc3)c2)cn1 [Compound 114, N-(1-benzylpiperidin-4-yl)-5-(biphenyl-3-ylamino)picolinamide] | 1000 to 5000 nM
10 | O=C(NCc1ccccc1)c1ccc(C(=O)N2CCN(Cc3ccc(F)cc3)CC2)cn1 [Compound 115, N-benzyl-5-(4-(4-fluorobenzyl)piperazine-1-carbonyl)picolinamide] | 5000 to 10000 nM
11 | O=C(NCc1ccccc1)c1ccc(C(=O)N2CCN(Cc3ccccc3)CC2)cn1 [Compound 116, N-benzyl-5-(4-benzylpiperazine-1-carbonyl)picolinamide] | 1000 to 5000 nM
12 | N#Cc1ccc(-c2ccc(Nc3ccc(C(=O)NC4CCN(Cc5ccccc5)CC4)nc3)cc2)cc1 [Compound 119, N-(1-benzylpiperidin-4-yl)-5-(4′-cyanobiphenyl-4-ylamino)picolinamide] | 1000 to 5000 nM
13 | COc1ccc(-c2ccc(Nc3ccc(C(=O)NC4CCN(Cc5ccccc5)CC4)nc3)cc2)cc1 [Compound 120, N-(1-benzylpiperidin-4-yl)-5-(4′-methoxybiphenyl-4-ylamino)picolinamide] | > 10000 nM
14 | N#Cc1ccc(CN2CCC(NC(=O)c3ccc(-c4cn(Cc5ccccc5)nn4)cn3)CC2)cc1 [Compound 121, 5-(1-benzyl-1H-1,2,3-triazol-4-yl)-N-(1-(4-cyanobenzyl)piperidin-4-yl)picolinamide] | 1000 to 5000 nM
15 | N#Cc1ccc(CN2CCC(NC(=O)c3ccc(C(=O)N4CCC(Cc5ccccc5)CC4)cn3)CC2)cc1 [Compound 124, 5-(4-benzylpiperidine-1-carbonyl)-N-(1-(4-cyanobenzyl)piperidin-4-yl)picolinamide] | < 500 nM
16 | N#Cc1ccc(CN2CCC(NC(=O)c3ccc(NC4CCN(c5ccccc5)CC4)cn3)CC2)cc1 [Compound 126, N-(1-(4-cyanobenzyl)piperidin-4-yl)-5-(1-phenylpiperidin-4-ylamino)picolinamide] | < 500 nM
17 | COc1ccc(C(=O)C2CCN(C(=O)c3ccc(C(=O)NC4CCN(Cc5ccc(C#N)cc5)CC4)nc3)CC2)cc1 [Compound 129, N-(1-(4-cyanobenzyl)piperidin-4-yl)-5-(4-(4-methoxybenzoyl)piperidine-1-carbonyl)picolinamide] | < 500 nM
18 | N#Cc1ccc(CN2CCc3ccc(NC(=O)c4ccc(C(=O)N5CCN(Cc6ccc(F)cc6)CC5)cn4)cc3C2)cc1 [Compound 132, N-(2-(4-cyanobenzyl)-1,2,3,4-tetrahydroisoquinolin-7-yl)-5-(4-(4-fluorobenzyl)piperazine-1-carbonyl)picolinamide] | < 500 nM
19 | CC(C)(c1ccccc1)N1CCN(C(=O)c2ccc(C(=O)NC3CCN(Cc4ccc(C#N)cc4)CC3)nc2)CC1 [Compound 133, N-(1-(4-cyanobenzyl)piperidin-4-yl)-5-(4-(2-phenylpropan-2-yl)piperazine-1-carbonyl)picolinamide] | < 500 nM
20 | N#Cc1ccc(CN2CCC(NC(=O)c3ccc(C(=O)N4CCC(Oc5ccc(C#N)cc5)CC4)cn3)CC2)cc1 [Compound 135, N-(1-(4-cyanobenzyl)piperidin-4-yl)-5-(4-(4-cyanophenoxy)piperidine-1-carbonyl)picolinamide] | < 500 nM
21 | N#Cc1ccc(CN2CCC(NC(=O)c3ccc(C(=O)N4CCCC(Oc5ccc(C#N)cc5)C4)cn3)CC2)cc1 (stereo not shown) [Compound 137, N-(1-(4-cyanobenzyl)piperidin-4-yl)-5-(3-(4-cyanophenoxy)piperidine-1-carbonyl)picolinamide] | < 500 nM
22 | N#Cc1ccc(CN2CCC(NC(=O)c3ccc(NC4CCN(c5ccc(Cl)cc5)CC4)cn3)CC2)cc1 [Compound 139, 5-(1-(4-chlorophenyl)piperidin-4-ylamino)-N-(1-(4-cyanobenzyl)piperidin-4-yl)picolinamide] | < 500 nM
23 | N#Cc1ccc(CN2CCC(NC(=O)c3ccc(C(=O)N4CCC(Cc5ccc(C(N)=O)cc5)CC4)cn3)CC2)cc1 [Compound 141, 5-(4-(4-carbamoylbenzyl)piperidine-1-carbonyl)-N-(1-(4-cyanobenzyl)piperidin-4-yl)picolinamide] | 500 to 1000 nM

Next, values leading:

Row | EC50 | SMILES
24 | < 500 nM | COc1ccc(CN2CCN(C(=O)c3ccc(C(=O)NC4CCN(Cc5ccc(C#N)cc5)CC4)nc3)CC2)cc1 [Compound 101, N-(1-(4-cyanobenzyl)piperidin-4-yl)-5-(4-(4-methoxybenzyl)piperazine-1-carbonyl)picolinamide]
25 | < 500 nM | N#Cc1ccc(CN2CCC(NC(=O)c3ccc(C(=O)N4CCN(Cc5ccncc5)CC4)cn3)CC2)cc1 [Compound 103, N-(1-(4-cyanobenzyl)piperidin-4-yl)-5-(4-(pyridin-4-ylmethyl)piperazine-1-carbonyl)picolinamide]
26 | 1000 to 5000 nM | CC(C)(c1ccc(C#N)cc1)N1CCC(NC(=O)c2ccc(C(=O)N3CCN(Cc4ccc(F)cc4)CC3)cn2)CC1 [Compound 111, N-(1-(2-(4-cyanophenyl)propan-2-yl)piperidin-4-yl)-5-(4-(4-fluorobenzyl)piperazine-1-carbonyl)picolinamide]
27 | < 500 nM | COc1ccc(CN2CCC(NC(=O)c3ccc(C(=O)N4CCN(Cc5ccc(F)cc5)CC4)cn3)CC2)cc1 [Compound 117, 5-(4-(4-fluorobenzyl)piperazine-1-carbonyl)-N-(1-(4-methoxybenzyl)piperidin-4-yl)picolinamide]
28 | < 500 nM | N#Cc1ccc(CN2CC[C@@H](NC(=O)c3ccc(C(=O)N4CCN(Cc5ccc(F)cc5)CC4)cn3)C2)cc1 [Compound 118, (R)-N-(1-(4-cyanobenzyl)pyrrolidin-3-yl)-5-(4-(4-fluorobenzyl)piperazine-1-carbonyl)picolinamide]
29 | < 500 nM | N#Cc1ccc(CN2CC[C@H](NC(=O)c3ccc(C(=O)N4CCN(Cc5ccc(F)cc5)CC4)cn3)C2)cc1 [Compound 123, (S)-N-(1-(4-cyanobenzyl)pyrrolidin-3-yl)-5-(4-(4-fluorobenzyl)piperazine-1-carbonyl)picolinamide]
30 | < 500 nM | CC1(C)CN(C(=O)c2ccc(C(=O)NC3CCN(Cc4ccc(C#N)cc4)CC3)nc2)CCN1Cc1ccc(F)cc1 [Compound 125, N-(1-(4-cyanobenzyl)piperidin-4-yl)-5-(4-(4-fluorobenzyl)-3,3-dimethylpiperazine-1-carbonyl)picolinamide]
31 | < 500 nM | N#Cc1ccc(CC2CCN(C(=O)c3ccc(C(=O)NC4CCN(Cc5ccc(C#N)cc5)CC4)nc3)CC2)cc1 [Compound 128, N-(1-(4-cyanobenzyl)piperidin-4-yl)-5-(4-(4-cyanobenzyl)piperidine-1-carbonyl)picolinamide]
32 | < 500 nM | N#Cc1ccc(CN2CCC(NC(=O)c3ccc(C(=O)N4CCC(Cc5ccc(F)cc5)CC4)cn3)CC2)cc1 [Compound 130, N-(1-(4-cyanobenzyl)piperidin-4-yl)-5-(4-(4-fluorobenzyl)piperidine-1-carbonyl)picolinamide]
33 | < 500 nM | COc1ccc(CC2CCN(C(=O)c3ccc(C(=O)NC4CCN(Cc5ccc(C#N)cc5)CC4)nc3)CC2)cc1 [Compound 131, N-(1-(4-cyanobenzyl)piperidin-4-yl)-5-(4-(4-methoxybenzyl)piperidine-1-carbonyl)picolinamide]
34 | < 500 nM | N#Cc1ccc(CN2CCC(NC(=O)c3ccc(C(=O)N4CCC(c5ccc(Cl)cc5)CC4)cn3)CC2)cc1 [Compound 134, 5-(4-(4-chlorophenyl)piperidine-1-carbonyl)-N-(1-(4-cyanobenzyl)piperidin-4-yl)picolinamide]
35 | < 500 nM | N#Cc1ccc(CN2CCC(NC(=O)c3ccc(C(=O)N4CCC(C(=O)c5ccc(F)cc5)CC4)cn3)CC2)cc1 [Compound 136, N-(1-(4-cyanobenzyl)piperidin-4-yl)-5-(4-(4-fluorobenzoyl)piperidine-1-carbonyl)picolinamide]
36 | < 500 nM | N#Cc1ccc(CN2CCC(NC(=O)c3ccc(C(=O)N4CCC(C(F)c5ccc(F)cc5)CC4)cn3)CC2)cc1 (stereo not shown) [Compound 138, N-(1-(4-cyanobenzyl)piperidin-4-yl)-5-(4-(fluoro(4-fluorophenyl)methyl)piperidine-1-carbonyl)picolinamide]
37 | < 500 nM | N#Cc1ccc(CN2CCC(NC(=O)c3ccc(C(=O)N4CCN(Cc5cc(F)cc(F)c5)CC4)cn3)CC2)cc1 [Compound 140, N-(1-(4-cyanobenzyl)piperidin-4-yl)-5-(4-(3,5-difluorobenzyl)piperazine-1-carbonyl)picolinamide]

From patent publication US20150087673A1, “METHODS FOR USING AND BIOMARKERS FOR AMPK-ACTIVATING COMPOUNDS” (RIGEL PHARMACEUTICALS, INC., priority 2013, published 2015)
